# Reference: US4766127A, “2-(3-pyridylmethyl)naphthalene-6-carboxylic acid as a thromboxane synthetase inhibitor” (Syntex (U.S.A.) Inc., priority 1987, dated 1988)
# Where “and” joins values, the source holds several entries; their conditions need not be identical. Equal entries are not always repeated.
# Tests used:
# Thromboxane Synthetase = target: T1, Thromboxane Synthetase (Homo sapiens, UniProt P24557); experiment: Inhibition of ADP-induced human platelet aggregation (PRP + pig aortic microsomes) as measure of thromboxane synthetase inhibition; type: cell-based
# T1 construct: Human platelet-rich plasma preparation; endogenous in cells; host or cells: human platelets in citrated platelet-rich plasma
# T1 sequence (P24557 1-533): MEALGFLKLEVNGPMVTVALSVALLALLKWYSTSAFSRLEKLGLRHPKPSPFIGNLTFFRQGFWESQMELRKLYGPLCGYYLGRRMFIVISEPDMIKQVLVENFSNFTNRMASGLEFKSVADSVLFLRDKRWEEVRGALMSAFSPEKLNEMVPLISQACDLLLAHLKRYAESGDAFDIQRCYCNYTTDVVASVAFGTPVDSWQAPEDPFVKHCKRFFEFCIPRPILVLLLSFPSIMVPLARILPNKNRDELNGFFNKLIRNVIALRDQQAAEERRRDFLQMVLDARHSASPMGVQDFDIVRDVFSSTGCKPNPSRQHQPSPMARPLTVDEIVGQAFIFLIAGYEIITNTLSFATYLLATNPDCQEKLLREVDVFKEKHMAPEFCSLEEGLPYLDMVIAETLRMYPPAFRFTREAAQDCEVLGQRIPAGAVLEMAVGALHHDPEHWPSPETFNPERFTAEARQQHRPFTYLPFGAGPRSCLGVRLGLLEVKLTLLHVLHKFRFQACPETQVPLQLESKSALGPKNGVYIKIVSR
# Experimental: Platelet Aggregation Inhibition
# Comparison of 2-(3-pyridylmethyl)naphthalene-6-carboxylic acid and 2-(3-pyridylmethyl)naphthalene-7-carboxylic acid.
# Platelet Aggregation Inducer: ADP
# Determination of Inhibition and Thromboxane Synthetase Activity Utilizing Human Platelet Aggregation
# Human platelet-rich plasma preparation:
# Blood sample is collected into siliconized vacutainers containing sodium citrate (0.5 ml of 11.25% sodium citrate per 15 ml vacutainer) final concentration 0.38%. Platelet rich plasma (PRP) is obtained after centrifuging the blood for 15 minutes at 200 xg at room temperature. Blood and plasma contacts only non-wettable plastic or siliconized glass surfaces. Procedure:
# 1. Aggregation is followed by the turbidimetric method of Born (J. Physiol. 162, 67p, 1962), using a Payton Dual Channel Aggregometer.
# 2. PRP-PAM control. 1.0 ml PRP is used. Pig aortic microsomes (PAM), prepared according to Neichi, et al. (Prostaglandins, 19(4), 577-86 (1980)), are incubated in PRP at 37° C. with stirring for 3 minutes, immediately followed by addition of inducer-ADP. The concentration of PAM is chosen to show little or no inhibition of platelet aggregation when compared with the aggregation of PRP alone.
# 3. PRP-PAM plus thromboxane synthetase inhibitor.
# Thromboxane synthetase inhibitor is added to 1.0 ml PRP incubated at 37° C. with stirring for two minutes. The PAM concentration is chosen according to step 2, and is added to PRP incubated at 37° C. with stirring for another 3 minutes. The inducer ADP is added immediately afterwards.
# prostacyclin = details: background statement; PGH2 diversion to PGI2 when TxA2 synthesis is blocked; cited from earlier work
# [1] = 1 × 10^-4 M, inducer ADP 5×10^-6 M, solvent water
# [2] = 1.0 × 10^-7 M, inducer ADP 5×10^-6 M, solvent water
# [3] = 2 × 10^-5 M, inducer ADP 5×10^-6 M, solvent water
# [4] = 5 × 10^-4 M, inducer ADP 5×10^-6 M, solvent water
# [5] = 5.0 × 10^-5 M, inducer ADP 5×10^-6 M, solvent water
# [6] = 5 × 10^-6 M, inducer ADP 5×10^-6 M, solvent water
# [7] = 5.0 × 10^-7 M, inducer ADP 5×10^-6 M, solvent water
Compound,% Inhibition (Thromboxane Synthetase; [1]),inhibition at 100 µM (Thromboxane Synthetase; [1]),% Inhibition (Thromboxane Synthetase; [2]),inhibition at 0.1 µM (Thromboxane Synthetase; [2]),"inhibition at 0.01 µM (Thromboxane Synthetase; 1.0 × 10^-8 M, inducer ADP 5×10^-6 M, solvent water)",% Inhibition (Thromboxane Synthetase; [3]),inhibition at 20 µM (Thromboxane Synthetase; [3]),"% Inhibition (Thromboxane Synthetase; 2 × 10^-7 M, inducer ADP 5×10^-6 M, solvent water)","inhibition at 0.02 µM (Thromboxane Synthetase; 2.0 × 10^-8 M, inducer ADP 5×10^-6 M, solvent water)",% Inhibition (Thromboxane Synthetase; [4]),inhibition at 500 µM (Thromboxane Synthetase; [4]),% Inhibition (Thromboxane Synthetase; [5]),inhibition at 50 µM (Thromboxane Synthetase; [5]),% Inhibition (Thromboxane Synthetase; [6]),inhibition at 5 µM (Thromboxane Synthetase; [6]),% Inhibition (Thromboxane Synthetase; [7]),inhibition at 0.5 µM (Thromboxane Synthetase; [7]),greater activity as a thromboxane synthetase inhibitor by a factor (Thromboxane Synthetase; factor relative to 2-(3-pyridylmethyl)-naphthalene-7-carboxylic acid),"IC50 (Thromboxane Synthetase; platelet aggregation inhibition, inducer ADP 5×10^-6 M, solvent water)",levels of prostacyclin produced (prostacyclin)
O=C(O)c1ccc2cc(Cc3cccnc3)ccc2c1 [2-(3-pyridylmethyl)naphthalene-6-carboxylic acid],85.2%,98.3%,29.3 ± 3.7%,47 ± 5.2%,4.7%,97.4 ± 1.3%,90.9 ± 1.3%,58.7 ± 9.2% and 97.1 ± 1.9%,1.6%,87.3%,96.6%,86.5 ± 2.2%,86.8 ± 1.8%,100.0% and 85.1 ± 4.1% and 85.3 ± 5.5%,88.7 ± 3.5%,75.8 ± 3.5%,78.3%,about 200,,
"O=C(O)c1ccc2ccc(Cc3cccnc3)cc2c1 [2-(3-pyridylmethyl)naphthalene-7-carboxylic acid, reference compound]",,88.8%,,,,,47.9%,,,,92.8%,,,,18.2%,,,,21 µM,
O=C(O)c1ccc(OCCn2ccnc2)cc1 [dazoxiben],,,,,,,,,,,,,,,,,,,,quite low
